Results published in article PMC4541410 (Scientific Reports, 2015).
Where two headings read alike, the source gives them in different places. Where a SMILES comes first, the peptide text is derived from it.

Columns and labels:
[1] = target: T1, gp41 6-HB formation between N36 and C34 (Human immunodeficiency virus type 1 group M subtype B, UniProt P04578); experiment: biochemical; format: biochemical, HIV-1; settings: read-out: IC50, inhibition of 6-HB formation between C34 and N36; N36 1 μM preincubated with peptide 37 °C 30 min, then C34 1 μM; ELISA with mAb NC-1; triplicate
T1 construct: gp41 NHR (“N36”, 546-581); made in house; host or cells: chemical solid-phase FMOC synthesis
T1 sequence (P04578 546-581): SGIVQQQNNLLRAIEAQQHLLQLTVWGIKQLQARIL
Protocol: Inhibition of gp41 six-helix bundle formation by a testing peptide was determined with a sandwich ELISA described previously. […] A450 was determined by an ELISA reader (Ultra 384, Tecan).

[2] = system: HIV-1Bal (subtype B, R5); settings: read-out: IC50, inhibition of infection by HIV-1Bal; M7 cells, 100 TCID50, p24 ELISA day 7; triplicate, repeated twice
Excerpt: (§1) Then, the culture supernatants were changed to fresh media. On the fourth day post-infection, culture supernatants were collected for detection of p24 antigen by ELISA. […] Then, the culture supernatants were changed to fresh media. On the fourth day post-infection, the culture supernatants were discarded and fresh media were complemented again. The supernatants were collected on the seventh day post-infection and tested for p24 antigen by ELISA as previously described. The percent inhibition of p24 production was calculated.

[3] = system: HIV-1IIIB (subtype B, X4); settings: read-out: IC50, inhibition of infection by HIV-1IIIB; MT-2 cells, 100 TCID50, p24 ELISA day 4; triplicate, repeated twice
Excerpt: as §1

[4] = system: HIV-1IIIB (subtype B, X4); experiment: Inhibition of HIV-1 IIIB infection by peptides in the presence of sera from HIV-1-infected patients; format: cell-based; settings: for Fold change of IC50, HPS-1: HPS-1 relative to N; for Fold change of IC50, HPS-2: HPS-2 relative to N; for Fold change of IC50, HPS-3: HPS-3 relative to N; for Fold change of IC50, HPS-4: HPS-4 relative to N; for Fold change of IC50, HPS-5: HPS-5 relative to N; for IC50: MT-2 cells, triplicate, mean ± SD
Protocol: Inhibition of peptides on HIV-1IIIB (subtype B, X4)infection in the presence of HIV-1-infected patients’ sera was determined as previously described. Briefly, each peptide was mixed with serially diluted serum from an HIV-1-infected patient at room temperature for 30 min. Next, the mixture of peptide/serum and HIV-1 (100 TCID50) were added to MT-2 cells (1 × 10^5/ml) in RPMI 1640 medium containing 10% FBS. After incubation at 37 °C overnight, the culture supernatants were replaced with fresh culture medium.

[5] = system: preexisting antibodies in sera from HIV-1-infected patients; experiment: Sandwich ELISA: cross-reactivity of peptides with preexisting antibodies in HIV-1-infected patients; format: binding, human; settings: peptide coated at 10 μg/ml, serially diluted sera, 37 °C 1 h, A450
Protocol: A sandwich ELISA was conducted to determine the cross-reactivity of the peptides with the preexisting antibodies in HIV-1-infected patients. […] The wells were then blocked with 1% gelatin, followed by addition of 50 μl of serially diluted sera from HIV-1-infected patients and incubation at 37 °C for 1 h. Then, HRP-labeled goat-anti-human IgG (Abcam, UK) and TMB were added sequentially. A450 was determined with an ELISA reader (Ultra 384, Tecan).

[6] = target: T2, N36 (gp41 NHR peptide) (Human immunodeficiency virus type 1 group M subtype B, UniProt P04578); experiment: CD spectroscopy and thermal midpoint analysis of peptide/N36 complexes; format: physicochemical, HIV-1; settings: for Tm of complex with N36: CD thermal denaturation at 222 nm, 4 to 98 °C, 5 °C/min, 10 μM in PBS pH 7.2; for α-helix content of complex with N36: CD, peptide/N36 mixture 10 μM in PBS pH 7.2, 4 °C
T2 construct: gp41 NHR (“N36”, 546-581); made in house; host or cells: chemical solid-phase FMOC synthesis
T2 sequence (P04578 546-581): as above
Protocol: Briefly, each peptide or peptide mixture was dissolved in phosphate-buffered saline (PBS: 50 mM sodium phosphate and 150 mM NaCl, pH 7.2) at the final concentration of 10 μM and incubated at 37 °C for 30 min before cooling down to 4 °C. The CD spectra of each sample were acquired on a Jasco spectropolarimeter (Model J-815, Jasco Inc., Japan) at 4 °C using a 5 nm bandwidth, 0.1 nm resolution, 0.1 cm path length and an average time of 5.0 sec. Spectra were corrected by the subtraction of a blank corresponding to the solvent composition of each sample. Thermal midpoint analysis was used to determine the temperature at which 50% of the 6-HB formed by the CHR and NHR would decompose. It was monitored at 222 nm from 4 °C to 98 °C by applying a thermal gradient of 5 °C/min. The melting curve was smoothed and the midpoint of the thermal unfolding transition (Tm) values was calculated using Jasco software utilities as described above.

[7] = system: T20-resistant HIV-1 variant N42T/N43K; format: cell-based
[8] = system: 92TH009 (A/E); settings: read-out: IC50 (nM), infection by primary isolate 92TH009 (A/E); primary HIV-1 isolate, subtype A/E
[9] = system: T20-resistant HIV-1 variant V38E/N42S; format: cell-based
[10] = system: 93BR020 (F); format: cell-based; settings: primary HIV-1 isolate, subtype F; read-out: IC50 (nM), infection by primary isolate 93BR020 (F)
[11] = in vivo; settings: male, Sprague-Dawley (SD), rat, plasma, iv, 1 mg/kg
Protocol: (§2) Four male SD rats weighing approximately 200 g each were obtained from the Shanghai Medical School Animal Center and were used for the half-life assay. […] After injection, blood samples were acquired from rat orbit at several time points (8 and 30 min and 1.5, 3, 6, 9, 12 and 24 h after peptide injection) and placed in clean tubes. […] Then, HRP-labeled rabbit-anti-mouse IgG (Sigma, USA) and TMB were added in order. Absorbance at 450 nm was determined by an ELISA reader (Ultra 384, Tecan). The standard peptide parameters were obtained first. Then, the plasma peptide concentrations were determined as a function of time and the half-life was calculated by using PK Solver for Microsoft Excel to obtain pharmacokinetic parameters.

[12] = system: BCF020 (Group O); settings: read-out: IC50 (nM), infection by primary isolate BCF020 (Group O), primary HIV-1 isolate
[13] = system: 92UG024 (D); format: cell-based; settings: primary HIV-1 isolate, subtype D; read-out: IC50 (nM), infection by primary isolate 92UG024 (D)
[14] = system: T20-resistant HIV-1 variant V38A/N42D; format: cell-based
[15] = system: 93IN101 (C); settings: read-out: IC50 (nM), infection by primary isolate 93IN101 (C); primary HIV-1 isolate, subtype C
[16] = system: T20-resistant HIV-1 variant V38A/N42T; format: cell-based
[17] = intravenous 1 mg/kg, male SD rats, n = 2; plasma by sandwich ELISA; PK Solver
Protocol: as §2

[18] = system: T20-resistant HIV-1 variant V38A; format: cell-based
[19] = system: NP1525 (A/E); format: cell-based; settings: primary HIV-1 isolate, subtype A/E; read-out: IC50 (nM), infection by primary isolate NP1525 (A/E)
[20] = system: 92UG029 (A); settings: read-out: IC50 (nM), infection by primary isolate 92UG029 (A); primary HIV-1 isolate, subtype A
[21] = system: 94US_33931N (B); settings: read-out: IC50 (nM), infection by primary isolate 94US_33931N (B); primary HIV-1 isolate, subtype B
[22] = in presence of serum of HIV-1-infected patient HPS-1, read-out: IC50 (nM), HIV-1 IIIB infection, HPS-1
[23] = in presence of serum of HIV-1-infected patient HPS-2, read-out: IC50 (nM), HIV-1 IIIB infection, HPS-2
[24] = in presence of serum of HIV-1-infected patient HPS-3, read-out: IC50 (nM), HIV-1 IIIB infection, HPS-3
[25] = in presence of serum of HIV-1-infected patient HPS-4, read-out: IC50 (nM), HIV-1 IIIB infection, HPS-4
[26] = in presence of serum of HIV-1-infected patient HPS-5, read-out: IC50 (nM), HIV-1 IIIB infection, HPS-5

| Compound | IC50 [2] | IC50 [3] | Fold change of IC50, HPS-1 [4] | Fold change of IC50, HPS-2 [4] | Fold change of IC50, HPS-3 [4] | Fold change of IC50, HPS-4 [4] | Fold change of IC50, HPS-5 [4] | IC50 [4, 22] | IC50 [4, 23] | IC50 [4, 24] | IC50 [4, 25] | IC50 [4, 26] | reactivity with antibodies in sera from five HIV-1-infected patients [5] | Tm of complex with N36 [6] | α-helix content of complex with N36 [6] | IC50 [7] | IC50 [8] | IC50 [9] | IC50 [10] | IC50 [12] | further results |
| --- | --- | --- | --- | --- | --- | --- | --- | --- | --- | --- | --- | --- | --- | --- | --- | --- | --- | --- | --- | --- | --- |
| COc1ccc(S(=O)(=O)O)cc1N=Nc1c(S(=O)(=O)O)cc2cc(Nc3nc(Nc4ccccc4)nc(Nc4cc(C)c(N=Nc5cc(S(=O)(=O)O)cc6cc(S(=O)(=O)O)cc(O)c56)cc4OC)n3)ccc2c1O [ADS-J1, reference compound] | – | – | – | – | – | – | – | – | – | – | – | – | – | – | – | – | – | – | – | – | IC50 [1]: 2750 nM |
| CC[C@H](C)[C@H](NC(=O)[C@H](CO)NC(=O)[C@H](CCC(=O)O)NC(=O)[C@H](CCC(=O)O)NC(=O)[C@H](CCC(N)=O)NC(=O)[C@H](CCCCN)NC(=O)[C@H](CCCCN)NC(=O)[C@@H](NC(=O)[C@H](CCC(N)=O)NC(=O)[C@H](CCC(=O)O)NC(=O)[C@H](CCC(=O)O)NC(=O)[C@@H](NC(=O)[C@H](CCCCN)NC(=O)[C@H](CCCCN)NC(=O)[C@@H](NC(=O)[C@H](CC(C)C)NC(=O)[C@H](CCC(=O)O)NC(=O)[C@H](CCC(=O)O)NC(=O)[C@H](CO)NC(=O)[C@H](CCCCN)NC(=O)[C@H](CCCCN)NC(=O)[C@@H](NC(=O)[C@H](CC(C)C)NC(=O)[C@H](CCC(=O)O)NC(=O)[C@H](CCC(=O)O)NC(=O)[C@@H](NC(=O)[C@H](CCC(=O)O)NC(=O)[C@H](CCCNC(=N)N)NC(=O)[C@H](CC(=O)O)NC(=O)[C@H](Cc1c[nH]c2ccccc12)NC(=O)[C@H](CCC(=O)O)NC(=O)[C@H](CCSC)NC(=O)[C@H](Cc1c[nH]c2ccccc12)NC(C)=O)[C@@H](C)CC)[C@@H](C)CC)[C@@H](C)CC)[C@@H](C)CC)[C@@H](C)CC)C(=O)N[C@@H](CCCCN)C(=O)N[C@@H](CCCCN)C(N)=O [AP1] (Ac-WMEWDREIEELIKKSEELIKKIEEQIKKQEESIKK-NH2) | 396 nM | 86.2 nM | 0.8 | 0.6 | 1.5 | 0.8 | 0.6 | 87.4 ± 54.8 nM | 70.1 ± 44.9 nM | 165 ± 26.6 nM | 89.5 ± 20.6 nM | 68.5 ± 22.6 nM | none of the three artificial peptides AP1, AP2 and AP3 was recognized | 59.6 ^oC | 65.36% | – | – | – | – | – | – |
| CC[C@H](C)[C@H](NC(=O)[C@H](CO)NC(=O)[C@H](CCC(=O)O)NC(=O)[C@H](CCC(=O)O)NC(=O)[C@H](CCC(N)=O)NC(=O)[C@H](CCCCN)NC(=O)[C@H](CCCCN)NC(=O)[C@@H](NC(=O)[C@H](CCC(N)=O)NC(=O)[C@H](CCC(=O)O)NC(=O)[C@H](CCC(=O)O)NC(=O)[C@@H](NC(=O)[C@H](CCCCN)NC(=O)[C@H](CCCCN)NC(=O)[C@@H](NC(=O)[C@H](CC(C)C)NC(=O)[C@H](CCC(=O)O)NC(=O)[C@H](CCC(=O)O)NC(=O)[C@H](CO)NC(=O)[C@H](CCCCN)NC(=O)[C@H](CCCCN)NC(=O)[C@@H](NC(=O)[C@H](CC(C)C)NC(=O)[C@H](CCC(=O)O)NC(=O)[C@H](CCC(=O)O)NC(=O)[C@@H](NC(=O)[C@H](CCCCN)NC(=O)[C@H](CCCCN)NC(=O)[C@H](CC(=O)O)NC(=O)[C@H](Cc1c[nH]c2ccccc12)NC(=O)[C@H](CCC(=O)O)NC(=O)[C@H](CCC(=O)O)NC(=O)[C@H](Cc1c[nH]c2ccccc12)NC(C)=O)[C@@H](C)CC)[C@@H](C)CC)[C@@H](C)CC)[C@@H](C)CC)[C@@H](C)CC)C(=O)N[C@@H](CCCCN)C(=O)N[C@@H](CCCCN)C(N)=O [AP2] (Ac-WEEWDKKIEELIKKSEELIKKIEEQIKKQEESIKK-NH2) | 50 nM | 23.1 nM | 0.5 | 0.7 | 1.7 | 0.8 | 1.5 | 24.3 ± 10.2 nM | 30.3 ± 4.2 nM | 78.3 ± 8.6 nM | 35.1 ± 2.3 nM | 69.3 ± 3.2 nM | none of the three artificial peptides AP1, AP2 and AP3 was recognized | 82.3 ^oC | 69.51% | 72.7 ± 7.53 nM | 50 ± 4.5 nM | 87.4 ± 5.26 nM | 42.7 ± 1.4 nM | 47.1 ± 2.1 nM | MRT [11]: 7.57 h; half-life [11]: 5.25 h; IC50 [13]: 34.5 ± 2.3 nM; IC50 [14]: 63.5 ± 6.37 nM; IC50 [15]: 35.6 ± 0.9 nM; IC50 [16]: 262 ± 5.63 nM; Cmax [17]: 667.43 µg/mL; IC50 [18]: 41.4 ± 8.65 nM; IC50 [19]: 65.6 ± 10.9 nM; IC50 [20]: 39.9 ± 4.2 nM; IC50 [21]: 38 ± 12.5 nM |
| Enfuvirtide | 30.2 nM | 13.6 nM | – | – | – | – | – | 128 ± 20.5 nM | 134 ± 44.9 nM | 157 ± 22 nM | > 200 nM | > 200 nM | – | – | – | > 2000 nM | 14.2 ± 12.4 nM | > 2000 nM | 24.5 ± 3.6 nM | 30.8 ± 0.5 nM | IC50 [13]: 15.5 ± 3.5 nM; IC50 [14]: > 2000 nM; IC50 [15]: 16.8 ± 6.5 nM; IC50 [16]: > 5000 nM; IC50 [18]: 943 ± 46.4 nM; IC50 [19]: 29.7 ± 6.9 nM; IC50 [20]: 8.6 ± 1.7 nM; IC50 [21]: 16.2 ± 2.8 nM |
